Assay results: patent US20110118337A1, “Method of Using Compositions Comprising MIR-192 and/or MIR-215 for the Treatment of Cancer” (Merck Sharp & Dohme Corp., priority 2008, published 2011)

Test system: HCT116DICER^ex5 cells
Assay: Cell cycle FACS screen of pools of three siRNAs per gene (G1 after nocodazole, G2/M after aphidicolin)
Format: cell-based, human
Conditions: pools of 3 siRNAs/gene at 100 nM final, FACS 66 hours post-transfection, average of two experiments
Description: To identify targets whose modulation influences the cell cycle arrest phenotype observed with miR-192 expression, the 62 candidate genes identified as described in Example 2 and shown in TABLE 3 were silenced individually by transfecting a pool of 3 gene-specific siRNA duplexes per gene (each directed to a different region of the gene) into HCT116DICER^ex5 cells. The siRNA duplex sequences (3 duplexes per gene) used to target each of the 62 genes are shown below in TABLE 5. The siRNA duplex oligonucleotides were obtained from Sigma-Genesys, as described in Linsley, P. S. et al., Mol Cell Biol 27:2240-2252 (2007).
HCT116DICER^ex5 cells were transiently transfected with pools of three different siRNA duplexes per gene at a 100 nM final concentration using Lipofectamine RNAiMax (Invitrogen), according to the manufacturer's instructions. At 48 hours post transfection, cells were left untreated, treated with nocodazole (100 ng/mL, Sigma-Aldrich), or treated with aphidicolin (2 μg/mL, Sigma-Aldrich) for an additional 18 hours before harvesting. The cells transfected with the siRNA pools were then screened by FACS analysis as described in Example 3 for the percentage of cells arrested in G1 or G2/M as compared to the negative siRNA luciferase control.
The siRNA pools tested in this screen were ranked according to the percentage of cells arrested in G1 or G2/M following transfection, as compared with a negative control siRNA targeting luciferase. To avoid being misled by possible RNAi off-target effects, the siRNA pools were deconvoluted to identify genes for which at least 2 different siRNA duplexes from the pool caused the cell cycle arrest phenotype (data not shown).
TABLE 6 summarizes the data obtained 66 hours post-transfection by FACS analysis showing the cell cycle distribution of the HCT116DICER^ex5 cells transfected with siRNA pools of 3 siRNAs/gene. Each pool was analyzed in two separate experiments, and the average percentage of the cells trapped in G1 (following nocodazole treatment), or G2/M (following aphidicolin treatment) are shown in TABLE 6.

FGF2
% G2 (Avg), Aphidicholin+ (aphidicolin 2 μg/mL 18 h): 19.8%
% G1 (Avg), Nocodazole+ (nocodazole 100 ng/mL 18 h): 33.7%
